From PubChem BioAssay (NCI)
Values joined by “and” are separate entries in the source; they are usually repeats but may differ in a detail not shown here. Identical values can stand only once.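 A five-concentration, 48-hour dose response in 96-well plates underlies each endpoint, interpolated linearly between surrounding concentrations. The concentration for 50% growth inhibition is given as GI50. TGI marks complete inhibition of growth.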

How the values were obtained:
Experiment in all cases: NCI tumour cell line growth inhibition, 48 h
DLD-1 colon = tested on: DLD-1 colon
M19-MEL melanoma = tested on: M19-MEL melanoma
SNB-78 CNS = tested on: SNB-78 CNS
BT-549 breast = tested on: BT-549 breast
XF 498 CNS = tested on: XF 498 CNS
RXF-631 renal = tested on: RXF-631 renal
HOP-18 NSCLC = tested on: HOP-18 NSCLC
MDA-N = tested on: MDA-N

SMILES	TGI (DLD-1 colon)	TGI (M19-MEL melanoma)	TGI (SNB-78 CNS)	GI50 (BT-549 breast)	TGI (BT-549 breast)	other results
Brc1cccc(C2SCc3nc4ccccc4n32)c1 (configuration not stated)	29.9 µM	49.1 µM	99.2 µM	–	–	–
COc1ccc(C2CC(c3cc(OC)c(OC)c(OC)c3)=NN2C(C)=O)cc1OCC(=O)Nc1nc2ccc(C(F)(F)F)cc2s1 (configuration not stated)	–	–	–	3.55 µM	82 µM	–
CCOC(=O)c1oc2ccc(OC)c3c2c1CCC3	> 100 µM	> 100 µM	> 100 µM	–	–	TGI (XF 498 CNS): > 100 µM
CC(C)(C)c1n[nH]c(=S)n(/N=C/c2ccc(F)c(Oc3ccccc3)c2)c1=O	–	–	–	34.5 µM	94.5 µM	–
O=C1OC(CCCl)(c2ccccc2)CC1CN1CCOCC1 (configuration not stated)	34 µM	45.6 µM	81.5 µM	–	–	TGI (XF 498 CNS): 29.3 µM
O=C(C1CCCCC1)[C@@H]1[C@]2(C(=O)NC3CCCCC32)[C@@H]2CCCN2[C@@]12C(=O)NC1CCC(Cl)CC12 (some centres not stated)	–	–	–	145 µM	286 µM	–
c1ccc2c(c1)c(NCCCCN1CCCCC1)cc1c3ccccc3c(NCCCCN3CCCCC3)cc21	–	–	–	20.7 µM	45.2 µM	–
O=S(=O)(c1ccccc1)C(CN1CCCCC1)S(=O)(=O)c1ccccc1	> 100 µM	> 100 µM	–	–	–	TGI (XF 498 CNS): > 100 µM
CCCCCCCCCCCC(=O)OCCOCCOCCOCCOCCOCc1ccc(OC)cc1	> 100 µM	> 100 µM	> 100 µM	–	–	TGI (RXF-631 renal): > 100 µM; TGI (HOP-18 NSCLC): > 100 µM
C[Si](C)(C)OC1(C#N)C2C3CC4C2C(=O)C2C4C3C21 (configuration not stated)	> 100 µM	> 100 µM	> 100 µM	–	–	TGI (HOP-18 NSCLC): > 100 µM
O=C(/C(=C/c1ccccc1)CN1CCCCC1)c1ccccc1	–	–	–	1.92 µM	3.85 µM	–
C[C@]12CCC3[C@@H](CC[C@@H]4c5nonc5CC[C@]34C)C1CCC(=O)N2 (some centres not stated)	–	> 100 µM	> 100 µM	–	–	TGI (RXF-631 renal): > 100 µM; TGI (XF 498 CNS): > 100 µM; TGI (HOP-18 NSCLC): > 100 µM
Cn1cnc2nc(Cl)nc(NC(C)(C)C(C)(C)O)c21	> 100 µM	–	> 100 µM	–	–	TGI (XF 498 CNS): > 100 µM; TGI (HOP-18 NSCLC): > 100 µM
N#Cc1c(N/N=C/c2c(Cl)cccc2Cl)nc(N)nc1N1CCOCC1	–	–	–	18 µM	> 100 µM	–
Cc1ccc(C(=O)Nc2cccc(C(F)(F)F)c2)cc1Nc1nc(-c2cccnc2)nc2c1cnn2C	–	–	–	4.12 µM and 2.86 µM	14.5 µM and 8.91 µM	–
COc1cc2c(cc1OCCCCOc1cc3c(cc1OC)C(=O)N1CCC[C@H]1CN3)N=C[C@@H]1CCCN1C2=O	–	–	–	0.357 µM	5.75 µM	–
O=S(=O)(NCCNC/C=C/c1ccc(Br)cc1)c1cccc2cnccc12	–	–	–	3.09 µM and 7.89 µM	12.7 µM and 21.6 µM	–
COc1cc2c(cc1OC(=O)CC(C)O)C1C(OC2=O)C(OC(C)=O)C=C2CCN(C)[C@H]21 (some centres not stated)	> 100 µM	> 100 µM	68.8 µM	–	–	TGI (RXF-631 renal): 93.9 µM; TGI (XF 498 CNS): 38.6 µM; TGI (HOP-18 NSCLC): 69.4 µM
C[C@]12CC[C@H]3[C@@H](CCC4=CC(=O)CC[C@@H]43)[C@@H]1CC[C@@H]2OC(=O)CCc1ccccc1	–	–	–	17.5 µM	33.9 µM	–
COc1ccc(-c2n[nH]nc2-c2cc(OC)c3c(c2OC)OCO3)cc1	–	–	–	0.544 µM	25.9 µM	–
Clc1cc(Cl)c(OCC#CI)cc1Cl	–	–	–	7.21 µM	19.8 µM	–

SMILES	TGI (DLD-1 colon)	TGI (M19-MEL melanoma)	TGI (SNB-78 CNS)	GI50 (BT-549 breast)	TGI (BT-549 breast)	other results
CCOc1ccc2nc(NC(=O)c3c/c(=N\NC(=O)C[N+](C)(C)C)c4ccc(O)cc4o3)sc2c1	13.4 µM	0.501 µM	15.5 µM	–	–	TGI (RXF-631 renal): 26.8 µM; TGI (XF 498 CNS): 6.14 µM; TGI (HOP-18 NSCLC): 5.05 µM
Cc1ccc(C2=NOC3=c4ccccc4=CSC3=C2c2ccc([N+](=O)[O-])cc2)cc1	–	–	–	19.1 µM	46.2 µM	–
COc1ccc2cc(-c3ccoc(=O)c3-c3cc(OC)c(OC)c(OC)c3)ccc2c1	–	–	–	0.232 µM	> 100 µM	–
CCCCCCc1cc(C(=O)Nc2cccc(C(F)(F)F)c2)nc(N)n1	> 100 µM	> 100 µM	> 100 µM	–	–	TGI (RXF-631 renal): > 100 µM; TGI (HOP-18 NSCLC): > 100 µM
Cc1ccc(NC(=O)/C=C/c2ccccc2)c(C(N)=O)c1	–	–	–	12.5 µM	> 100 µM	–
CN(C)CCCN1c2ccccc2CCc2ccc(Cl)cc21	–	–	–	10.4 µM	22.2 µM	–
C/C(=N\Nc1ccc2ccccc2n1)c1ccccn1	–	–	–	0.256 µM	16.6 µM	–
CC(C)CC(CC1=CCC2CC1C2(C)C)C1=C(O)C(C)(C)C(=O)C(C)(C)C1=O (configuration not stated)	–	–	–	0.413 µM	4.37 µM	–
O=C(NN1C(=O)CSC12CCCCC2)c1[nH]c2ccc(F)cc2c1-c1ccccc1	–	–	–	33.8 µM	> 100 µM	–
c1ccc2c(C3NCCc4[nH]cnc43)cccc2c1 (configuration not stated)	> 100 µM	> 100 µM	> 100 µM	–	–	TGI (HOP-18 NSCLC): > 100 µM
CCCCNCC(=O)O[C@]1(CC)C(=O)OCc2c1cc1n(c2=O)Cc2cc3ccccc3nc2-1	> 100 µM	6.21 µM	> 100 µM	–	8.36 µM	TGI (RXF-631 renal): 6.9 µM; TGI (XF 498 CNS): 2.92 µM; TGI (MDA-N): 23.1 µM; TGI (HOP-18 NSCLC): 48.9 µM
CCCCCCCCCCCCCCCCCC(=O)OCC(COC1OC(COP(=O)(O)O)C(O)C(O)C1O)OC(=O)CCCCCCCCCCCCCCCCC (configuration not stated)	–	–	–	–	–	TGI (MDA-N): 20.1 µM
Cn1c2c(cc(S(=O)(=O)c3ccccc3)c1=O)CCc1c-2cnn1-c1ccc(Cl)cc1	–	–	–	3.03 µM	7.82 µM	–
O=c1[nH]c2ccccc2nc1-c1c[nH]c2ccccc12	–	–	–	> 100 µM	> 100 µM	–
COc1cccc(NC(=O)c2sc3nc4c(cc3c2N)CN(Cc2ccccc2)CC4)c1	–	–	–	2.83 µM	26.2 µM	–
COc1ccc(N=c2ssc3c(=S)ssc23)cc1	54.5 µM	> 100 µM	99.4 µM	–	–	–
CC(C)(C)c1ccc(OCCCCCCN2CCNCC2)cc1	–	–	–	10.5 µM	27.1 µM	–
CCN(C(=O)N1CCN(c2cc3c(cc2F)c(=O)c(C(=O)O)cn3C2CC2)CC1)c1nc(-c2ccc(C)cc2)cs1	–	–	–	0.336 µM	1.56 µM	–
N/C(=N\N=C\c1ccc(-c2ccccc2)cc1)N[N+](=O)[O-]	–	–	–	17.1 µM	> 100 µM	–
Cc1cc(N/N=C/c2nc(-c3ccc(Br)cc3)oc2C)c2cc(Cl)ccc2n1	–	–	–	> 100 µM	> 100 µM	–
